Test results from patent US20060257481A1, “Sustained release formulation and dosing schedule of leukotriene synthesis inhibitor for human therapy” (deCODE Genetics ehf., priority 2005, published 2006).
Several values for one entry are separate records, joined by “and”; a condition that tells them apart may be missing. Equal entries are not always repeated.

Tests used:
[1] = Pharmacokinetics of DG-031 dosing schedules, plasma concentration (studies 201 and 203); settings: for Peak concentration with trough concentration of 3 μg/mL maintained: steady-state, both half-lives
Description: Measurements of plasma DG-031 can be carried out by methods that are standard in the art. […] The DG-031 is then measured by liquid chromatography and/or mass spectrometry and the measured concentration is compared to a standard curve.
After completion of the double-blind study reported herein an open-label randomized study was conducted in an independent cohort but with same eligibility criteria and measuring several of the same biomarkers. […] Each patient was on drug for 8 days; there was no placebo group. The primary objective of this study was to determine pharmacokinetic parameters of DG-031 in three different doses, as well as to assess the pharmacokinetic/pharmacodynamic relationship between DG-031, LTB4 and MPO.
The additional phase II study was conducted to compare a 750 mg total daily dose administered in a BID or TID dosing regimen.

[2] = tested on: MPO release by neutrophils and other cells in human whole blood; assay: In vitro MPO release in human whole blood after ionomycin stimulation; format: cell-based
Description: Neutrophils and other cells in human whole blood respond in vitro to activation by a calcium ionophore (e.g., ionomycin), with an increase in LTB4 production and with coupled release of MPO stimulated in part by LTB4 production in the assay. The effect of DG-031 on the capacity for production of LTB4 in vitro after ionomycin stimulation was evaluated at concentrations ranging from 0.1 μM up to 240 μM.

Amyloid A = assay: Study DG-031-201 cross-over trial: Amyloid A in serum; format: in vivo, human; settings: week 6, p=0.05
Description: Patients who met the study eligebility criteria were enrolled and randomized into 3 different dose-level groups: (1) 64 patients on 250 mg/day therapy with DG-031 (250 mg q.d.), vs placebo; (2) 64 patients on 500 mg/day therapy with DG-031 (250 mg b.i.d.) vs placebo; and (3) 63 patients on 750 mg/day therapy with DG-031 (250 mg t.i.d.) vs placebo. […] All patients received 3 tablets per day. Treatment periods, 4 weeks in duration each, were separated by a 2-week washout period. The placebo tablets were identical in shape, color, form and taste to the active tablets except that they contained no active drug ingredients. Treatment with DG-031 or placebo was in addition to the subject's standard care, including all medications and treatment plan as prescribed by the subject's cardiologist prior to enrolment. A total of 191 subjects were enrolled, with 172 completing all 8 visits or 8 patients short of the target of 180 patients. […]
All data were analyzed according to a pre-established statistical analysis plan (SAP) and by intention-to-treat (ITT). […] The difference between DG-031 and placebo treatment was the primary outcome, assessed separately for each of the biomarkers. […]

[3] = tested on: LTB4 production (ex vivo); assay: Study DG-031-203 open label dose ranging: capacity for LTB4 production ex vivo; format: in vivo, human
Description: The study also collected information on the dose-related effect of DG-031 on capacity for LTB4 production (ex vivo), plasma MPO, and serum-CRP. […] The pattern observed supported a concentration dependent pharmacologic effect of DG-031 on capacity for LTB4 production measured ex vivo. The effects on LTB4 production amounted to a 30% (p=0.016) and 25% (p=0.094) reduction with the 375 mg BID and 250 mg TID doses, respectively.

[4] = Effect of a high fat meal on DG-031 pharmacokinetics; format: in vivo, human; settings: administration with a high fat meal
Description: In the context of treatment of a single individual, a steady state concentration may be expected to fluctuate from day-to-day with variations in the individual's diet, level activity, state of health, co-administration of other medications, and the like. DG-031 is preferably administered with food to improve adsorption. […] In this context, the steady state concentration for an individual refers to an average concentration taken at multiple time points, to adjust for such fluctuation.

[5] = tested on: LTB4 produced by ionomycin-activated neutrophils ex vivo; assay: Study DG-031-201: LTB4 in whole blood ex vivo after ionomycin activation, mass spectrometry; design: species or system human
Description: Patients who met the study eligebility criteria were enrolled and randomized into 3 different dose-level groups: (1) 64 patients on 250 mg/day therapy with DG-031 (250 mg q.d.), vs placebo; (2) 64 patients on 500 mg/day therapy with DG-031 (250 mg b.i.d.) vs placebo; and (3) 63 patients on 750 mg/day therapy with DG-031 (250 mg t.i.d.) vs placebo. […] All patients received 3 tablets per day. Treatment periods, 4 weeks in duration each, were separated by a 2-week washout period. The placebo tablets were identical in shape, color, form and taste to the active tablets except that they contained no active drug ingredients. Treatment with DG-031 or placebo was in addition to the subject's standard care, including all medications and treatment plan as prescribed by the subject's cardiologist prior to enrolment. A total of 191 subjects were enrolled, with 172 completing all 8 visits or 8 patients short of the target of 180 patients.
The primary objective was to determine whether the FLAP inhibitor has a statistically significant effect, compared to placebo, on one or more biomarkers of MI risk, including: (1) ionomycin-induced LTB4 and MPO release by neutrophils ex vivo; (2) MPO, CRP, N-tyrosine, Lp-PLA2 or amyloid A in serum, or (3) LTE4 in urine. The secondary objective was to determine whether the effect of DG-031 was dose-dependent. The tertiary objective was to assess other biomarkers (See Results). Evaluation of safety and tolerability of the drug was also a primary endpoint.
All data were analyzed according to a pre-established statistical analysis plan (SAP) and by intention-to-treat (ITT). Each arm of the study, as well as pooled sets (combining dose levels), was considered for the primary analysis. Each such set is an AB/BA cross-over design and in the primary analysis of efficacy, the levels of biomarkers of MI risk at the end of the treatment periods (visits 4 and 7) were used as primary response variables. The difference between DG-031 and placebo treatment was the primary outcome, assessed separately for each of the biomarkers. Treatment effect was tested using a two-sample t-test on the period differences for suitably transformed response variables, under an assumption of normality of the transformed data. We report treatment effect as one half of the observed mean differences in the two-sample t-test, with a 95% CI. No pre-tests for carry-over effect were performed as a part of the primary analysis. Tests for carry-over were done and are reported separately from results of primary analysis. All hypotheses were tested at a two-sided nominal significance level of 0.05 and p-values based on t-tests are reported. […]

[6] = difference visit 2 to visit 5, 500 and 750 mg/day vs placebo cohort

O=C(O)[C@@H](c1ccc(OCc2ccc3ccccc3n2)cc1)C1CCCC1 [DG-031, (R)-(+)-alpha-cyclopentyl-4-(2-quinolinylmethoxy)-Benzeneacetic acid]
Minimum plasma concentration maintained ([1]; 250 mg TID): ~7 µM
Peak concentrations of DG-031 ([1]; 250 mg TID): about 10 μg/ml and ~28 μM
Steady state Cmin plasma concentration ([1]; 250 mg TID): 2000 to 3000 ng/mL
Calculated AUC24h ([1]; 250 mg TID vs 375 mg BID, study 203): somewhat higher for 250 mg TID than for 375 mg BID
Cmin ([1]; 375 mg BID vs 250 mg TID, study 203): slightly higher for the TID dosing regimen
Peak concentration with trough concentration of 3 μg/mL maintained ([1]; BID doses): 14 µg/mL
Peak concentration required to keep steady-state concentration above 3 μg/ml ([1]; BID dosing, calculated for a 2.5 hour half-life (FIG. 4)): ~30 µg/mL
Peak concentration with trough concentration of 3 μg/mL maintained ([1]; TID doses): 7 to 8 µg/mL
Peak plasma concentration required to keep steady-state concentration above 3 μg/ml ([1]; TID dosing, calculated for a 2.5 hour half-life): ~11 µg/mL
Drug required with TID dosing relative to BID schedule to maintain the minimum concentration ([1]; in vivo): about 70%
Share of total exposure of the fraction with the slower half-life ([1]; in vivo): about 25%
Concentration at which MPO release is maximally inhibited in vitro [2]: ~2 μg/ml and about 6 μM
Reduction of SAA (Amyloid A): 15%
LTB4 production ([3]; 250 mg TID, St. 203): −25% (St. 203)
Reduction of LTB4 production ex vivo ([3]; 250 mg TID, p=0.094): 25%
LTB4 production ([3]; 375 mg BID, Study 203, 2 hours, p = 0.016): −30%
Reduction of LTB4 production ex vivo ([3]; 375 mg BID, p=0.016): 30%
LTB4 production ([3]; 375 mg QD, Study 203, 2 hours, NS): −16%
Increase in AUC [4]: 30%
Increase in Cmax [4]: 150%
Tmax [4]: no effect
half-life [4]: shorter half-life
Maximum reduction in LTB4 production ([5]; 750 mg/day, [10%,39%], p=0.003): 26%
Carry-over effect, LTB4 in whole blood, corr. for wbc, m.s. [5, 6]: 0.12
Carry-over effect, LTB4 in whole blood, mass spec. [5, 6]: 0.19
Reduction of LTB4 produced by ionomycin-activated neutrophils ex vivo ([5]; pooled set of 500 mg and 750 mg arms, [6%,27%], nominal p=0.004): 17%
